In the supplement of paper PMC10627819:

Tests used:
S. aureus DSM 20231 [1] = experiment: Bliss interaction score (quartile over a dose matrix) (fitness difference); higher = more antagonism (negative = synergy)
Method in brief: (§1)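 Fitness was defined as normalised growth: OD595 at the start of stationary phase divided by the plate's robust no-drug mean and capped at 1. Single-drug fitness was inferred from combination measurements. The Bliss score is observed fitness minus the product of the single-drug values, summarised by quartiles across technical, biological and donor/recipient replicates.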

S. aureus Newman [2] = experiment: as above
Method in brief: as §1

B. subtilis 168 = experiment: as above
Method in brief: as §1

S. pneumoniae D39V [3] = experiment: as above
Method in brief: as §1

S. aureus DSM 20231 [4] = experiment: fitness (endpoint OD595 vs no drug) (fraction); higher = more growth
Method in brief: (§2)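 Fitness was measured as bacterial growth in 384-well plates inoculated at OD595 0.01 (30 µl, or 55 µl for S. pneumoniae). Media were TSB, LB Lennox or CY, at 37 °C. OD595 was read every 30 min for 14 h and background-subtracted against the first reading. Fitness is OD595 at the transition into stationary phase divided by the robust mean of no-drug control wells, capped at 1.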

S. aureus Newman [5] = experiment: as above
Method in brief: as §2

S. pneumoniae D39V [6] = experiment: as above
Method in brief: as §2
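Throughout, for Bliss interaction score (quartile over a dose matrix): first quartile when negative (synergy) and third quartile when positive (antagonism).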
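Throughout, for fitness (endpoint OD595 vs no drug): OD595 on entry to stationary phase over no-drug wells; at most 1.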

Cn1c2cccc(=O)c-2nc2ccccc21 [Pyocyanin] + CCCCCCCCCC(=O)N[C@@H]1[C@H]([C@@H]([C@H](O[C@H]1OC2=C3C=C4C=C2OC5=C(C=C(C=C5)[C@H]([C@H]6C(=O)N[C@@H](C7=C(C(=CC(=C7)O)OC8[C@H]([C@H]([C@@H]([C@H](O8)CO)O)O)O)C9=C(C=CC(=C9)[C@H](C(=O)N6)NC(=O)[C@@H]4NC(=O)[C@@H]1C2=CC(=CC(=C2)OC2=C(C=CC(=C2)[C@H](C(=O)N[C@H](CC2=CC(=C(O3)C=C2)Cl)C(=O)N1)N)O)O)O)C(=O)O)O[C@H]1[C@@H]([C@H]([C@@H]([C@H](O1)CO)O)O)NC(=O)C)Cl)CO)O)O [Teicoplanin]
main component drawn
Settings | Bliss interaction score
B. subtilis 168 | -0.0698
S. aureus DSM 20231 [1] | 0.0554
S. aureus Newman [2] | -0.114
S. pneumoniae D39V [3] | 0.0954

fitness, main component drawn
Settings | first compound 1.25 µg/mL | first compound 2.5 µg/mL | first compound 5 µg/mL
S. aureus DSM 20231 [4], partner 0.1562 µg/mL | 0.99 | 0.906 | 0.619
S. aureus DSM 20231 [4], partner 0.3125 µg/mL | ≥ 1 | 0.962 | 0.647
S. aureus DSM 20231 [4], partner 0.625 µg/mL | ≥ 1 | ≥ 1 | 0.691
S. aureus Newman [5], partner 0.1562 µg/mL | 0.958 | 0.805 | 0.372
S. aureus Newman [5], partner 0.3125 µg/mL | 0.891 | 0.769 | 0.35
S. aureus Newman [5], partner 0.625 µg/mL | 0.708 | 0.54 | 0.247

fitness, S. aureus Newman [5], one replicate, main component drawn
Settings | first compound 1.25 µg/mL | first compound 2.5 µg/mL | first compound 5 µg/mL
partner 0.62 µg/mL | 0.72 | 0.696 | 0.473
partner 1.24 µg/mL | 0.698 | 0.558 | 0.238
partner 2.48 µg/mL | 0.328 | 0.14 | 0.072

Cn1c2cccc(=O)c-2nc2ccccc21 [Pyocyanin] + CN[C@H](CC(C)C)C(=O)N[C@H]1C(=O)N[C@@H](CC(N)=O)C(=O)N[C@H]2C(=O)N[C@H]3C(=O)N[C@H](C(=O)N[C@H](C(=O)O)c4cc(O)cc(O)c4-c4cc3ccc4O)[C@H](O)c3ccc(c(Cl)c3)Oc3cc2cc(c3O[C@@H]2O[C@H](CO)[C@@H](O)[C@H](O)[C@H]2O[C@H]2C[C@](C)(N)[C@H](O)[C@H](C)O2)Oc2ccc(cc2Cl)[C@H]1O [Vancomycin]
Settings | Bliss interaction score
B. subtilis 168 | -0.0201
S. aureus DSM 20231 [1] | 0.0758
S. aureus Newman [2] | 0.0784
S. pneumoniae D39V [3] | 0.0635

Settings | fitness
S. aureus DSM 20231 [4], first compound 1.25 µg/mL, partner 0.1875 µg/mL | 0.796
S. aureus DSM 20231 [4], first compound 1.25 µg/mL, partner 0.375 µg/mL | 0.856
S. aureus DSM 20231 [4], first compound 1.25 µg/mL, partner 0.75 µg/mL | 0.921
S. aureus DSM 20231 [4], first compound 2.5 µg/mL, partner 0.1875 µg/mL | 0.852
S. aureus DSM 20231 [4], first compound 2.5 µg/mL, partner 0.375 µg/mL | 0.861
S. aureus DSM 20231 [4], first compound 2.5 µg/mL, partner 0.75 µg/mL | 0.934
S. aureus DSM 20231 [4], first compound 5 µg/mL, partner 0.1875 µg/mL | 0.659
S. aureus DSM 20231 [4], first compound 5 µg/mL, partner 0.375 µg/mL | 0.745
S. aureus DSM 20231 [4], first compound 5 µg/mL, partner 0.75 µg/mL | 0.726
S. aureus Newman [5], first compound 1.25 µg/mL, partner 0.1875 µg/mL | 0.907
S. aureus Newman [5], first compound 1.25 µg/mL, partner 0.375 µg/mL | 0.899
S. aureus Newman [5], first compound 1.25 µg/mL, partner 0.75 µg/mL | 0.84
S. aureus Newman [5], first compound 2.5 µg/mL, partner 0.1875 µg/mL | 0.855
S. aureus Newman [5], first compound 2.5 µg/mL, partner 0.375 µg/mL | 0.768
S. aureus Newman [5], first compound 5 µg/mL, partner 0.75 µg/mL | 0.393
S. pneumoniae D39V [6], first compound 0.325 µg/mL, partner 0.03125 µg/mL | ≥ 1
S. pneumoniae D39V [6], first compound 0.325 µg/mL, partner 0.0625 µg/mL | 0.994
S. pneumoniae D39V [6], first compound 0.325 µg/mL, partner 0.125 µg/mL | 0.921
S. pneumoniae D39V [6], first compound 0.65 µg/mL, partner 0.03125 µg/mL | 0.962
S. pneumoniae D39V [6], first compound 0.65 µg/mL, partner 0.0625 µg/mL | 0.952
S. pneumoniae D39V [6], first compound 1.3 µg/mL, partner 0.03125 µg/mL | 0.686
S. pneumoniae D39V [6], first compound 1.3 µg/mL, partner 0.0625 µg/mL | 0.651

fitness, S. pneumoniae D39V [6], one replicate
Settings | first compound 0.325 µg/mL | first compound 0.65 µg/mL
partner 0.25 µg/mL | 0.584 | 0.724
partner 0.5 µg/mL | 0.314 | 0.391

Cn1c2cccc(=O)c-2nc2ccccc21 [Pyocyanin] + Cn1nnc(-c2ccc(-c3ccc(N4C[C@H](CO)OC4=O)cc3F)cn2)n1 [Tedizolid]
Settings | Bliss interaction score
B. subtilis 168 | 0.0439
S. aureus DSM 20231 [1] | 0.0928
S. aureus Newman [2] | -0.065
S. pneumoniae D39V [3] | -0.0686

fitness
Settings | partner 0.03125 µg/mL | partner 0.0625 µg/mL | partner 0.125 µg/mL | partner 0.25 µg/mL
S. aureus DSM 20231 [4], first compound 1.25 µg/mL | – | 0.813 | 0.739 | 0.218
S. aureus DSM 20231 [4], first compound 2.5 µg/mL | – | 0.8 | 0.701 | 0.242
S. aureus DSM 20231 [4], first compound 5 µg/mL | – | 0.635 | 0.565 | 0.169
S. aureus Newman [5], first compound 1.25 µg/mL | – | 0.853 | 0.789 | –
S. aureus Newman [5], first compound 2.5 µg/mL | – | 0.764 | 0.651 | –
S. aureus Newman [5], first compound 5 µg/mL | – | – | 0.248 | 0.161
S. pneumoniae D39V [6], first compound 0.325 µg/mL | 0.976 | 0.978 | 0.798 | –
S. pneumoniae D39V [6], first compound 0.65 µg/mL | 0.97 | 0.952 | 0.844 | –
S. pneumoniae D39V [6], first compound 1.3 µg/mL | 0.753 | 0.731 | 0.652 | –

fitness, S. pneumoniae D39V [6], one replicate
Settings | first compound 0.325 µg/mL | first compound 0.65 µg/mL
partner 0.25 µg/mL | 0.736 | 0.821
partner 0.5 µg/mL | 0.344 | 0.545
